In patent US8188098B2, “GPR119 receptor agonists” (Hoffmann-La Roche Inc., priority 2008, dated 2012):
Where a name gives a salt, the structure may show the parent alone.

Target: T1, GPR119 receptor (Mesocricetus auratus, UniProt A0A1U8CD06)
T1 construct: which endogenously express the GPR119 receptor; host or cells: HIT-T15 hamster pancreatic islet cells
T1 sequence (A0A1U8CD06 1-334): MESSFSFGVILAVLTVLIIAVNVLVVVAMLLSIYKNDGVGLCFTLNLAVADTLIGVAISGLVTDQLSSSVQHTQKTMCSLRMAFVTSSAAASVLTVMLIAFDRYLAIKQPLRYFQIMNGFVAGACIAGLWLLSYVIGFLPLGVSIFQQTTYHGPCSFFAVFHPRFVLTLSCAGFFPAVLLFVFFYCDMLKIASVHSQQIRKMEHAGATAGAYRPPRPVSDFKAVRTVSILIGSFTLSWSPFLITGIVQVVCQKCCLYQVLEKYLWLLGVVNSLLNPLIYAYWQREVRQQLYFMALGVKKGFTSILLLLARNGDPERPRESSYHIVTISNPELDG
Assay: cAMP assay in HIT-T15 hamster pancreatic islet cells (functional agonist activity)
Format: cell-based
Conditions: HIT-T15 cells endogenously expressing GPR119; 30 min at 25° C.; intracellular cAMP
How it was run: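 cAMP immunoassay with luminescent read-out, EC50 fitted, after a 30 min, 25° C agonist incubation in HIT-T15 hamster islet cells expressing GPR119 natively. Medium contained 0.5 mM IBMX and 0.5 mg/ml BSA; 9000 cells/well.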

Row | Compound | EC50 [µM]
1 | Cc1ncccc1Oc1ncnc2c1cnn2C1CCC(c2nc(C(C)C)no2)CC1 (centres unmarked) [Example 135, 1-[4-(3-Isopropyl-[1,2,4]oxadiazol-5-yl)-cyclohexyl]-4-(2-methyl-pyridin-3-yloxy)-1H-pyrazolo[3,4-d]pyrimidine] | 0.92
2 | Cc1ncccc1Oc1ncnc2c1cnn2C1CCN(C(=O)OC(C)C)CC1 [Example 28, 4-[4-(2-Methyl-pyridin-3-yloxy)-pyrazolo[3,4-d]pyrimidin-1-yl]-piperidine-1-carboxylic acid isopropyl ester hydrochloride salt] | 0.82
3 | Cc1ncccc1Oc1ncnc2c1cnn2C1CCN(C(=O)OC2CCCCC2)CC1 [Example 125, 4-[4-(2-Methyl-pyridin-3-yloxy)-pyrazolo[3,4-d]pyrimidin-1-yl]-piperidine-1-carboxylic acid cyclohexyl ester] | 0.57
4 | Cc1nnnn1-c1ccc(Oc2ncnc3c2cnn3C2CCN(C(=O)OC(C)C)CC2)cc1 [Example 26, 4-{4-[4-(5-Methyl-tetrazol-1-yl)-phenoxy]-pyrazolo[3,4-d]pyrimidin-1-yl}-piperidine-1-carboxylic acid isopropyl ester] | 0.95
5 | CC(C)(C)OC(=O)N1CCC(n2ncc3c(Oc4ccc5ccc(=O)oc5c4)ncnc32)CC1 [Example 75, 4-[4-(2-Oxo-2H-chromen-7-yloxy)-pyrazolo[3,4-d]pyrimidin-1-yl]-piperidine-1-carboxylic acid tert-butyl ester] | 1.8
6 | Cc1nn(C2CCN(C(=O)OC(C)C)CC2)c2ncnc(Oc3cc(F)c(F)cc3F)c12 [Example 17, 4-[3-Methyl-4-(2,4,5-trifluoro-phenoxy)-pyrazolo[3,4-d]pyrimidin-1-yl]-piperidine-1-carboxylic acid isopropyl ester] | 0.7
7 | CS(=O)(=O)c1ccc(Oc2ncnc3c2cnn3C2CCN(C(=O)c3ccccc3)CC2)cc1 [Example 149, {4-[4-(4-Methanesulfonyl-phenoxy)-pyrazolo[3,4-d]pyrimidin-1-yl]-piperidin-1-yl}-phenylmethanone] | 1.7
8 | CC(C)OC(=O)N1CCC(n2ncc3c(Oc4ccccc4)ncnc32)CC1 [Example 15, 4-(4-Phenoxy-pyrazolo[3,4-d]pyrimidin-1-yl)-piperidine-1-carboxylic acid isopropyl ester] | 2

These reach a lower EC50. Values come first.

Row | EC50 [µM] | Compound
9 | 0.53 | CC(C)(C)OC(=O)N1CCC(n2ncc3c(Oc4ccc(F)cc4)ncnc32)CC1 [Example 34, 4-[4-(4-Fluoro-phenoxy)-pyrazolo[3,4-d]pyrimidin-1-yl]-piperidine-1-carboxylic acid tert-butyl ester]
10 | 0.36 | CS(=O)(=O)c1ccc(Oc2ncnc3c2cnn3C2CCN(Cc3ccccc3O)CC2)cc1 [Example 164, 2-{4-[4-(4-Methanesulfonyl-phenoxy)-pyrazolo[3,4-d]pyrimidin-1-yl]-piperidin-1-ylmethyl}-phenol]
11 | 0.036 | CS(=O)(=O)c1ccc(Oc2ncnc3c2cnn3C2CCN(Cc3ccc(C(F)(F)F)cc3)CC2)cc1 [Example 161, 4-(4-Methanesulfonyl-phenoxy)-1-[1-(4-trifluoromethyl-benzyl)-piperidin-4-yl]-1H-pyrazolo[3,4-d]pyrimidine]
12 | 0.55 | Cc1ncccc1Oc1ncnc2c1cnn2C1CCN(C(=O)OC2CCC2)CC1 [Example 116, 4-[4-(2-Methyl-pyridin-3-yloxy)-pyrazolo[3,4-d]pyrimidin-1-yl]-piperidine-1-carboxylic acid cyclobutyl ester]
13 | 0.22 | CC(C)(C)OC(=O)N1CCC(n2ncc3c(Oc4ccc(C#N)c(F)c4)ncnc32)CC1 [Example 48, 4-[4-(4-Cyano-3-fluoro-phenoxy)-pyrazolo[3,4-d]pyrimidin-1-yl]-piperidine-1-carboxylic acid tert-butyl ester]
14 | 0.46 | CC(=O)Nc1ccc(Oc2ncnc3c2cnn3C2CCN(C(=O)OC(C)C)CC2)cc1 [Example 25, 4-[4-(4-Acetylamino-phenoxy)-pyrazolo[3,4-d]pyrimidin-1-yl]-piperidine-1-carboxylic acid isopropyl ester]
